Data on six molecules can be found in patent US12325696B2, “Indazole derivative, preparation method therefor, and pharmaceutical application thereof” (JIANGSU HENGRUI MEDICINE CO., LTD., priority 2019, dated 2025).

Assay type in all cases: cell-based
One test has as its system MCF7 D538G. As to the kind of experiment: Inhibition of proliferation of MCF7 cell expressing ERα D538G mutant. The conditions noted are these: Homo sapiens, 144 hours; for Emax: read-out: Maximum inhibition. From the text:
(§1) The mutants ERα Y537S and ERα D538G of human estrogen receptor α (ERαs) protein were obtained by site-directed mutagenesis using the cDNA of wild-type ESR1 gene (Accession No. NM000125) as a template according to double-primer PCR. The primer sequences used for mutagenesis are as follows (the nucleotides underlined are the sites of mutagenesis):
(§2) The cDNA of mutant ESR1 was cloned into the target lentiviral vector pCDH-CMV-MCS-EF1-Puro (SBI, CD510B-1). The lentiviral plasmid with the mutant ESR1 gene sequence and the lentiviral packaging plasmids pVSV-G and pCMV-dR8.91 (SBI, LV500A-1) were transfected into HEK-293T cells (ATCC, CRL-3216) by Lipofectamine 3000 Transfection Reagent (ThermoFisher Scientific, Cat #L3000075). 48 hours after the transfection, the supernatant of the virus-containing DMEM high-glycemic medium (GE Healthcare, SH30243.01) containing 10% FBS was filtered, and ultracentrifuged to obtain the virus pellet. The virus pellet was resuspended in an appropriate amount of MEM medium (GE Healthcare, SH30024.01) containing 10% FBS, non-essential amino acids (SIGMA, M7145-100ML) and sodium pyruvate (SIGMA, S8636-100ML), and the resulting suspension was added to MCF7 cells (ATCC, HTB-22). Polybrene (SIGMA, H9268-5G) at a final concentration of 8 µg/ml was added, and the cells were incubated overnight. Two days after the transfection, […] puromycin (invitrogen, A11138-03) was added to the cell culture medium for resistance screening. After about two weeks, the MCF7 cell line capable of stably expressing ERαY537S and ERα D538G mutants was obtained.
(§3) MCF7 cells expressing ERα mutant were cultured in MEM (GE Healthcare, SH30024.01) complete medium containing 10% fetal bovine serum. On the first day of the experiment, the cells were seeded in a 96-well plate with the complete medium at a density of 3,000 cells/well (100 μl of cell suspension per well), and the plate was incubated in a cell incubator at 37° C. and 5% CO2 overnight. On the second day, the medium in each well was replaced with 135 μl of MEM incomplete medium containing 2% fetal bovine serum. 15 μl of test compound solution of different concentrations formulated with the incomplete medium was added to each well, wherein the final concentrations of the compound were nine concentration points obtained by a 4-fold gradient dilution starting from 100 nM. A blank control containing 0.500 DMSO was set. The plate was incubated in a cell incubator at 37° C. and 500 CO2 for 144 hours. On the eighth day, the 96-well plate was taken out, and 150 of CellTiter-Glo® Luminescent Cell Viability Assay (Promega, G7573) was added to each well. The plate was left to stand at room temperature for 10 minutes, and the luminescence signal values were measured using a multi-label microplate reader (PerkinElmer, VICTOR 3). The IC50 values of the inhibitory activity of the compounds were calculated based on the concentrations and luminescence signal values of the compounds using Graphpad Prism software.

A further test relates to MCF7 cell. The experiment in a line: Inhibition of proliferation of MCF7 cell (CellTiter-Glo, 144 hours). The conditions noted are these: Homo sapiens; for IC50: MCF7, CellTiter-Glo, read-out: IC50 of the inhibitory effect on the proliferation of MCF7 cell; for Emax: MCF7 cell proliferation, read-out: Maximum inhibition. The procedure:
as §3, with “cells (ATCC, HTB-22)” for “cells expressing ERα mutant”, “experiment, MCF7” for “experiment, the”, “containing 0.5%” for “containing 0.500”, “and 5%” for “and 500”, “150 μl” for “150”
A graph of the chemiluminescence signal values versus the logarithmic concentrations of the compound was made using Graghpad Prism to obtain the IC50 values of the compound.
A general note: In ATP-based viability assays light output follows the ATP content of the culture.

In test [1] the test system is estrogen receptor reporter gene. The experiment in a line: Inhibition of estrogen receptor reporter gene activity (ERE-luc luciferase) in MCF7/ERE-luc cells. The conditions noted are these: Homo sapiens, 0.1 nM β-estradiol, 20 hours, read-out: IC50 of inhibitory activity on the activity of the estrogen receptor reporter gene. Here is the method:
MCF7 cells MCF7/ERE-luc (ATCC, HTB-22) expressing the luciferase reporter gene ERE-luc (synthesized by GENEWIZ, Inc.) controlled by the estrogen receptor response element were cultured in MEM (GE Healthcare, SH30024.01) medium containing 10% fetal bovine serum and 500 µg/ml G418. On the first day of the experiment, MCF7/ERE-luc cells were seeded in a 96-well plate with incomplete MEM medium containing 10% fetal bovine serum treated with activated charcoal (BioSun, BS-0004-500) at a density of 30,000 cells/well (100 μl of cell suspension per well), and the plate was incubated in a cell incubator at 37° C. and 5% CO2 overnight. On the second day, 10 μl of β-estradiol (SIGMA, E2758-250MG) solution formulated with the above incomplete medium or test compound solution of different concentrations formulated with the above incomplete medium was added to each well, wherein the final concentration of β-estradiol was 0.1 nM, and the final concentrations of the compound were nine concentration points obtained by a 10-fold gradient dilution starting from 10 μM, a blank control containing 0.5% DMSO was set, and the plate was incubated in a cell incubator at 37° C. and 5% CO2 for 20 hours. On the third day, the 96-well plate was taken out, and 100 μl of ONE-Glo™ Luciferase Assay system (Promega, E6110) was added to each well to determine the activity of luciferase. The plate was left to stand at room temperature for 3 minutes until the cells were fully lysed, and the luminescence signal values were measured using a multi-label microplate reader (PerkinElmer, VICTOR 3). The IC50 values of the inhibitory activity of the compounds were calculated using Graphpad Prism software based on the concentrations and luminescence signal values of the compounds.
The inhibitory effect of the compounds of the present disclosure on the activity of the estrogen receptor reporter gene was determined by the above test. A graph of the chemiluminescence signal values versus the logarithmic concentrations of the compound was made using Graghpad Prism.
Background: In a reporter assay the amount or activity of a reporter protein is the signal.

The subject of a further test is MCF7 ERαY537S. The experiment in a line: Inhibition of proliferation of MCF7 cell expressing ERα Y537S mutant. The conditions noted are these: Homo sapiens, 144 hours; for Emax: read-out: Maximum inhibition.
Excerpt: as §1, §2, §3

As to `CN(C)C(=O)/C=C/CN1CC[C@@H](Oc2ccc(/C(=C(/CC(F)(F)F)c3ccccc3)c3ccc4[nH]nc(F)c4c3)cn2)C1` [Example 29, (E)-N,N-Dimethyl-4-((R)-3-((5-((Z)-4,4,4-trifluoro-1-(3-fluoro-1H-indazol-5-yl)-2-phenylbut-1-en-1-yl)pyridin-2-yl)oxy)pyrrolidin-1-yl)but-2-enamide], the IC50 was determined as 3 nM in the test with MCF7 D538G, 0.4 nM in the test with MCF7 cell, 3 nM in test [1] and 2 nM with MCF7 ERαY537S. The Emax in the test on MCF7 D538G, in the test on MCF7 cell and with MCF7 ERαY537S was 93% each time.

In the case of `CN(C)C(=O)/C=C/CN1CCC(Nc2ccc(/C(=C(/CC(F)(F)F)c3ccccc3)c3ccc4[nH]nc(F)c4c3)cn2)CC1` [Example 33, (E)-N,N-Dimethyl-4-(4-((5-((Z)-4,4,4-trifluoro-1-(3-fluoro-1H-indazol-5-yl)-2-phenylbut-1-en-1-yl)pyridin-2-yl)amino)piperidin-1-yl)but-2-enamide], the IC50 in the test on MCF7 D538G was determined as 1 nM; with MCF7 cell, 0.3 nM; in test [1], 3 nM; in the test on MCF7 ERαY537S it was 2 nM. Further, the Emax amounted to 106% in the test on MCF7 D538G, 105% in the test on MCF7 cell and 105% in the test on MCF7 ERαY537S.

On to `CN(C)C(=O)/C=C/CN[C@@H]1CCN(c2ccc(/C(=C(/CC(F)(F)F)c3ccccc3)c3ccc4[nH]nc(F)c4c3)cn2)C1` [Example 34, (E)-N,N-Dimethyl-4-(((R)-1-(5-((Z)-4,4,4-trifluoro-1-(3-fluoro-1H-indazol-5-yl)-2-phenylbut-1-en-1-yl)pyridin-2-yl)pyrrolidin-3-yl)amino)but-2-enamide], for which the IC50 in the test with MCF7 D538G turned out to be 1 nM; with MCF7 cell, 0.2 nM; in test [1] it was 3 nM; in the test on MCF7 ERαY537S, 1 nM. Further, the Emax in the test on MCF7 D538G is 101%; in the test on MCF7 cell, 103%; with MCF7 ERαY537S, 105%.

On to `CN(C)C(=O)/C=C/CN[C@H]1CCN(c2ccc(/C(=C(/CC(F)(F)F)c3ccccc3)c3ccc4[nH]nc(F)c4c3)cn2)C1` [Example 35, (E)-N,N-Dimethyl-4-(((S)-1-(5-((Z)-4,4,4-trifluoro-1-(3-fluoro-1H-indazol-5-yl)-2-phenylbut-1-en-1-yl)pyridin-2-yl)pyrrolidin-3-yl)amino)but-2-enamide], for which the IC50 in the test on MCF7 D538G was determined as 3 nM; in the test on MCF7 cell, 1.1 nM; in test [1], 4 nM; with MCF7 ERαY537S, 6 nM. For the same molecule, the Emax with MCF7 D538G is 104%; in the test on MCF7 cell, 105%; in the test on MCF7 ERαY537S, 97%.

As for `CN(C)C(=O)/C=C/CNC1CCN(c2ccc(/C(=C(/CC(F)(F)F)c3ccccc3)c3ccc4[nH]nc(F)c4c3)cn2)CC1` [Example 36, (E)-N,N-Dimethyl-4-((1-(5-((Z)-4,4,4-trifluoro-1-(3-fluoro-1H-indazol-5-yl)-2-phenylbut-1-en-1-yl)pyridin-2-yl)piperidin-4-yl)amino)but-2-enamide], the IC50 with MCF7 D538G is 2 nM; with MCF7 cell it was 0.5 nM; in test [1] it was 5 nM; in the test on MCF7 ERαY537S, 3 nM. The Emax came out at 99% with MCF7 D538G, 104% in the test with MCF7 cell and 100% with MCF7 ERαY537S.

On to `CN(C)C(=O)/C=C/CN(C)[C@H]1CCCN(c2ccc(/C(=C(/CC(F)(F)F)c3ccccc3)c3ccc4[nH]nc(F)c4c3)cn2)C1` [Example 37, (E)-N,N-Dimethyl-4-(methyl((S)-1-(5-((Z)-4,4,4-trifluoro-1-(3-fluoro-1H-indazol-5-yl)-2-phenylbut-1-en-1-yl)pyridin-2-yl)piperidin-3-yl)amino)but-2-enamide], for which the IC50 with MCF7 D538G amounted to 2 nM; in the test with MCF7 cell it was 0.8 nM; in test [1], 8 nM; in the test with MCF7 ERαY537S, 3 nM. The Emax in the test with MCF7 D538G stood at 101%; with MCF7 cell it was 98%; in the test on MCF7 ERαY537S, 86%.
